Test: Storage of the aqueous ophthalmic composition in polyethylene bottles: concentration of active ingredient over time
Format: physicochemical
Conditions: for concentration upon storage at low temperature / concentration upon storage at room temperature: polyethylene bottles; for concentration upon storage at low temperature: low (2-8° C.) temperature
Protocol: The ophthalmic products XALATAN® (comprising approximately 50 μg/ml latanoprost) and XALCOM® (comprising approximately 50 μg/ml latanoprost and 5 mg/ml timolol) are packaged in bottles. The bottle is typically made of clear low-density polyethylene with a clear low-density polyethylene dropper tip, a high-density polyethylene screw cap, and a clear low-density polyethylene overcap. Unopened bottles are stored at 2-8° C.
While storage at recommended temperature has proven to be an effective way of maintaining product stability of the ophthalmic products, it would be desirable to store such ophthalmic products at room temperature for prolonged periods without adversely affecting the concentration(s) of the active ingredient(s).
Following extensive research, a better understanding of the above-mentioned phenomenon has now been achieved. When the polyethylene packages are stored, moisture from the composition is lost to the atmosphere. Moreover, prostaglandin itself is absorbed into or adsorbed to the bottle resin and thus removed from the composition. […] Thus, the concentration of timolol increases over time and may have undesired systemic effects upon administration to the eye. This net effect of this phenomenon is more pronounced at room temperature than at low temperature.

| Structure (SMILES) | concentration upon storage at low temperature | concentration upon storage at room temperature | loss to the atmosphere or absorption/adsorption by the package material (polyethylene packages on storage) |
| --- | --- | --- | --- |
| CC(C)OC(=O)CCC/C=C\C[C@@H]1[C@@H](CC[C@@H](O)CCc2ccccc2)[C@H](O)C[C@@H]1O [latanoprost] | maintained at a nearly constant level | maintained at a nearly constant level |  |
| CC(C)(C)NC[C@H](O)COc1nsnc1N1CCOCC1 [timolol, (S)-1-[(1,1-dimethylethyl)amino]-3-[ [4-(4-morpholinyl)-1,2,5-thiadiazol-3-yl]oxy]-2-propanol] | maintained at a nearly constant level | increases gradually over time | neither lost to the atmosphere nor absorbed/adsorbed by the package material to any large extent |

From patent publication US20050048122A1, “Method for stabalizing timolol concentration” (Pharmacia & Upjohn Company, priority 2003, published 2005)
